Data as given in US9211310B2, “Use of a Chinese medicine composition in preparing medicaments for treating secondary prevention of myocardial infarction” (TASLY PHARMACEUTICAL GROUP CO., LTD, priority 2010, dated 2015).

Test system: patients after acute myocardial infarction
Assay: TCM symptom score, total and single (chest pain, chest tightness, short breath, fatigue, palpitation, spontaneous perspiration, pale complexion), same clinical trial
Type: in vivo, human
Parameters: total score of TCM symptom, Mean / total score of TCM symptom, Min / total score of TCM symptom, Max / total score of TCM symptom, Md / change of total score of TCM symptom, Mean / change of total score of TCM symptom, Max / change of total score of TCM symptom, Md: scale not given here
Description: 3508 patients who were in accordance with the diagnostic standards of AMI for 28 days to 2 years and differentiated as Qi deficiency and blood stagnation syndrome by TCM were studied. 0.5 g Chinese medicine composition prepared by the method of EXAMPLE 1 (Coded as QSYQ) was administrated half an hour after meal, 3 times per day.
They included the overall survival time, angina pectoris score, TCM symptom score and life quality score, where angina pectoris score, TCM symptom score and life quality score were evaluated at randomization, in 1st, 3rd, 6th, 9th, 12th month after treatment and 18th month after follow-up.
The analysis method referred to the angina pectoris score.

[1] = PP, 12 months after treatment-treatment
[2] = PP, 1 month after treatment-baseline

## CC(=O)Oc1ccccc1C(=O)O [Control group, aspirine]
Follow-up, FAS
  chest tightness score 2, percent of patients: (0.07%)
  chest tightness score 3, number of patients: 479
  chest tightness score 3, percent of patients: (33.57%)
  chest tightness score 6, number of patients: 192
  chest tightness score 6, percent of patients: (13.45%)
  chest tightness score 9, number of patients: 1
  chest tightness score 9, percent of patients: (0.07%)
Follow-up, PP
  chest pain score 0, number of patients: 733
  chest pain score 0, percent of patients: (52.62%)
  chest pain score 2, number of patients: 1
  chest pain score 2, percent of patients: (0.07%)
  chest pain score 3, number of patients: 472
  chest pain score 3, percent of patients: (33.88%)
  chest pain score 6, number of patients: 186
  chest pain score 6, percent of patients: (13.35%)
  chest pain score 9, number of patients: 1
  chest pain score 9, percent of patients: (0.07%)
  chest tightness score 0, number of patients: 733
  chest tightness score 0, percent of patients: (52.62%)
  chest tightness score 2, number of patients: 1
  chest tightness score 2, percent of patients: (0.07%)
  chest tightness score 3, number of patients: 472
  chest tightness score 3, percent of patients: (33.88%)
  chest tightness score 6, number of patients: 186
  chest tightness score 6, percent of patients: (13.35%)
  chest tightness score 9, number of patients: 1
  chest tightness score 9, percent of patients: (0.07%)
[1]
  change of short breath 0, % of patients: (53.11%)
  change of short breath 2, % of patients: (36.17%)
  change of short breath 2, number of patients: 506
  change of short breath 4, % of patients: (4.50%)
  change of short breath 4, number of patients: 63
  change of short breath 6, % of patients: (0.79%)
  change of short breath 6, number of patients: 11
  change of short breath −2, % of patients: (5.36%)
  change of short breath −2, number of patients: 75
  change of short breath −4, % of patients: (0.07%)
  change of short breath −4, number of patients: 1
PP, 1 month after treatment
  distribution of total score of TCM symptom: Medium, number of patients: 600
  distribution of total score of TCM symptom: Medium, percentage of patients: (41.04%)
  distribution of total score of TCM symptom: Mild, number of patients: 847
  distribution of total score of TCM symptom: Mild, percentage of patients: (57.93%)
  distribution of total score of TCM symptom: Severe, number of patients: 15
  distribution of total score of TCM symptom: Severe, percentage of patients: (1.03%)
  fatigue score 0, % of patients: (23.62%)
  fatigue score 0, number of patients: 346
  fatigue score 2, % of patients: (60.75%)
  fatigue score 2, number of patients: 890
  fatigue score 4, % of patients: (14.40%)
  fatigue score 4, number of patients: 211
  fatigue score 6, % of patients: (1.23%)
  fatigue score 6, number of patients: 18
  pale complexion score 0, number of patients: 613
  pale complexion score 0, percent of patients: (41.81%)
  pale complexion score 1, number of patients: 615
  pale complexion score 1, percent of patients: (41.95%)
  pale complexion score 2, number of patients: 211
  pale complexion score 2, percent of patients: (14.39%)
  pale complexion score 3, number of patients: 27
  pale complexion score 3, percent of patients: (1.84%)
  palpitation score 0, number of patients: 353
  palpitation score 0, percent of patients: (24.11%)
  palpitation score 1, number of patients: 1
  palpitation score 1, percent of patients: (0.07%)
  palpitation score 2, number of patients: 713
  palpitation score 2, percent of patients: (48.70%)
  palpitation score 4, number of patients: 351
  palpitation score 4, percent of patients: (23.98%)
  palpitation score 6, number of patients: 46
  palpitation score 6, percent of patients: (3.14%)
  short breath score 0, % of patients: (20.68%)
  short breath score 0, number of patients: 303
  short breath score 3, % of patients: (53.72%)
  short breath score 3, number of patients: 787
  short breath score 6, % of patients: (24.91%)
  short breath score 6, number of patients: 365
  short breath score 9, % of patients: (0.68%)
  short breath score 9, number of patients: 10
  spontaneous perspiration score 0, number of patients: 518
  spontaneous perspiration score 0, percent of patients: (35.36%)
  spontaneous perspiration score 1, number of patients: 738
  spontaneous perspiration score 1, percent of patients: (50.38%)
  spontaneous perspiration score 2, number of patients: 195
  spontaneous perspiration score 2, percent of patients: (13.31%)
  spontaneous perspiration score 3, number of patients: 14
  spontaneous perspiration score 3, percent of patients: (0.96%)
  total score of TCM symptom, Max: 34.00
  total score of TCM symptom, Md: 11.00
  total score of TCM symptom, Mean: 11.93
  total score of TCM symptom, Min: 0.00
[2]
  change of fatigue 0, % of patients: (72.24%)
  change of fatigue 0, number of patients: 1054
  change of fatigue 1, % of patients: (0.07%)
  change of fatigue 1, number of patients: 1
  change of fatigue 2, % of patients: (17.82%)
  change of fatigue 2, number of patients: 260
  change of fatigue 4, % of patients: (2.40%)
  change of fatigue 4, number of patients: 35
  change of fatigue 6, % of patients: (0.82%)
  change of fatigue 6, number of patients: 12
  change of fatigue −2, % of patients: (5.96%)
  change of fatigue −2, number of patients: 87
  change of fatigue −4, % of patients: (0.62%)
  change of fatigue −4, number of patients: 9
  change of fatigue −6, % of patients: (0.07%)
  change of fatigue −6, number of patients: 1
  change of pale complexion 0, number of patients: 1275
  change of pale complexion 0, percent of patients: (87.45%)
  change of pale complexion 1, number of patients: 131
  change of pale complexion 1, percent of patients: (8.98%)
  change of pale complexion −1, number of patients: 52
  change of pale complexion −1, percent of patients: (3.57%)
  change of palpitation 0, number of patients: 1051
  change of palpitation 0, percent of patients: (71.99%)
  change of palpitation 1, number of patients: 295
  change of palpitation 1, percent of patients: (20.21%)
  change of palpitation 2, number of patients: 22
  change of palpitation 2, percent of patients: (1.51%)
  change of palpitation 3, number of patients: 4
  change of palpitation 3, percent of patients: (0.27%)
  change of palpitation −1, number of patients: 87
  change of palpitation −1, percent of patients: (5.96%)
  change of palpitation −2, number of patients: 1
  change of palpitation −2, percent of patients: (0.07%)
